In ChEMBL document CHEMBL1201862, “PubChem BioAssay data set” (2004):
Values belong to the compound of their own block, whether it stands above or below them. The source made the active and inactive calls.

Columns and labels:
[1] = molecular target: CAAX prenyl protease 2 (Saccharomyces cerevisiae S288c, UniProt Q03530); format: biochemical
[2] = molecular target: CAAX prenyl protease 2 (Homo sapiens, UniProt Q9Y256); experiment: inhibition of Ras-converting CAAX protease Rce1 – biochemical, yeast membranes, quenched-peptide fluorescence, cherry-pick, dose response (AID 588849)
[3] = molecular target: Beta-adrenergic receptor kinase 1 (Homo sapiens, UniProt P25098); experiment: blockers of aptamer binding to GRK2 – biochemical, flow cytometry beads, FAM-aptamer, powder set 1, dose response (AID 588720)
[4] = test system: BJ; experiment: BJ-TERT fibroblast viability loss – cell-based, RAS-independent, luminescence, dose response (AID 1933); format: functional; conditions: Homo sapiens
[5] = test system: BJ; experiment: cells; format: functional, cell-based; conditions: Homo sapiens
[6] = DRD fibroblast viability loss – cell-based, non-viral oncogenic, luminescence, dose response (AID 1934); format: functional; conditions: Homo sapiens
[7] = molecular target: Phospholipase A2 (Homo sapiens, UniProt P04054); experiment: phospholipase A2 activity inhibition – biochemical, set 2, counter-screen for ATG4B inhibitor project, dose response (AID 588586); format: functional
[8] = molecular target: T1, Cysteine protease ATG4B (Homo sapiens, UniProt Q9Y4P1); experiment: autophagin-1 cysteine protease inhibition – biochemical, fluorescence, set 2, dose response (AID 588584); format: functional
T1 sequence (Q9Y4P1 whole entry): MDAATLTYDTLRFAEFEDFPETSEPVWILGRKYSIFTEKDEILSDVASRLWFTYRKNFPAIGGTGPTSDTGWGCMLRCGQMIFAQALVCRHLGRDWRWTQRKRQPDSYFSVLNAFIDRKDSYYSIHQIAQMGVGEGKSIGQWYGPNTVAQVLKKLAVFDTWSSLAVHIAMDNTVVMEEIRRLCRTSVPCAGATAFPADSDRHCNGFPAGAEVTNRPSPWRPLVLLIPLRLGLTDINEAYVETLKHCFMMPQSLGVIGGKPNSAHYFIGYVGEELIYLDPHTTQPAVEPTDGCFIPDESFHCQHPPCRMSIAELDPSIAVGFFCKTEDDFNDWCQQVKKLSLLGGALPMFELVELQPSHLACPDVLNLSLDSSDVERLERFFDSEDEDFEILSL

[9] = molecular target: Cytochrome P450 2C19 (Homo sapiens, UniProt P33261); experiment: Cytochrome panel assay with activity outcomes. Panel member name: p450-cyp2c19 Compounds with AC50 equal or less than 10 uM are considered active; format: functional
[10] = molecular target: Cytochrome P450 2D6 (Homo sapiens, UniProt P10635);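 further: CYP2D6 member of a cytochrome P450 panel assay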
[11] = molecular target: T2, Cytochrome P450 1A2 (Homo sapiens, UniProt P05177);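 further: PubChem cytochrome P450 panel assay, CYP1A2 panel member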
T2 sequence (P05177 whole entry): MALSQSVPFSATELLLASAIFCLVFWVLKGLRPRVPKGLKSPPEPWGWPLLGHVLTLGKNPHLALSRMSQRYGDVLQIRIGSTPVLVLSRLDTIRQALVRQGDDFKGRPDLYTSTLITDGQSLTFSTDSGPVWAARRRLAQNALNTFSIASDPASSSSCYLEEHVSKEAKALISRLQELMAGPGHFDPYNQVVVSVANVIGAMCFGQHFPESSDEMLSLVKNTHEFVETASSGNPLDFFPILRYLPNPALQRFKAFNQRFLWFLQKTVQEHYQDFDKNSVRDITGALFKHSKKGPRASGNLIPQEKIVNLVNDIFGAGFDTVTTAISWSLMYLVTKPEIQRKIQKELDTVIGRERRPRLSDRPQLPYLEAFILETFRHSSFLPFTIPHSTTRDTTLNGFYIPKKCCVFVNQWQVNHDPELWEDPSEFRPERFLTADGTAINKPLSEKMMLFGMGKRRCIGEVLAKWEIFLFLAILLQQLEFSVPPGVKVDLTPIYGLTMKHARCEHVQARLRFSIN

[12] = molecular target: Cytochrome P450 2C9 (Homo sapiens, UniProt P11712)
Chain of Cytochrome P450 2C9 (P11712 whole entry): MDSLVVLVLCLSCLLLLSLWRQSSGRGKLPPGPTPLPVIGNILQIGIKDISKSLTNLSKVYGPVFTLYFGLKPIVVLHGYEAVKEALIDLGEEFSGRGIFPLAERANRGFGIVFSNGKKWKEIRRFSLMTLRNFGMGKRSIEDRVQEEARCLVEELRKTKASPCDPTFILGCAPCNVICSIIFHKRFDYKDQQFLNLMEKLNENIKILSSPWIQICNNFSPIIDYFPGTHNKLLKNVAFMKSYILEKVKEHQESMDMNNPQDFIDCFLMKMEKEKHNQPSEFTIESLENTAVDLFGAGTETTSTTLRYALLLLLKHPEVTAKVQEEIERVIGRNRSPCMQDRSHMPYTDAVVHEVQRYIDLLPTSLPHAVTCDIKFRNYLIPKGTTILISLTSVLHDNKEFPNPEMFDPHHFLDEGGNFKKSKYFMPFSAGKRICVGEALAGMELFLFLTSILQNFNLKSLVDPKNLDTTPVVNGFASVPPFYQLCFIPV

Chain of CAAX prenyl protease 2 (Homo sapiens, UniProt Q9Y256) (Q9Y256 whole entry): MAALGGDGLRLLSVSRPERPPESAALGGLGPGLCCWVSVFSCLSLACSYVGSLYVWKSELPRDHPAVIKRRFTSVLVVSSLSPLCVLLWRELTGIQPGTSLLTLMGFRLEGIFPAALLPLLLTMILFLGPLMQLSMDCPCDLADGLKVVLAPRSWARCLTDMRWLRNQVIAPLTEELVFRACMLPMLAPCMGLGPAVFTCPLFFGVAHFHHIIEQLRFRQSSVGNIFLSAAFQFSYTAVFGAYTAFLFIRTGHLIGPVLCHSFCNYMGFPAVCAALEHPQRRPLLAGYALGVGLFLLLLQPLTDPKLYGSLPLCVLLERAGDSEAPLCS
Chain of CAAX prenyl protease 2 (Saccharomyces cerevisiae S288c, UniProt Q03530) (Q03530 whole entry): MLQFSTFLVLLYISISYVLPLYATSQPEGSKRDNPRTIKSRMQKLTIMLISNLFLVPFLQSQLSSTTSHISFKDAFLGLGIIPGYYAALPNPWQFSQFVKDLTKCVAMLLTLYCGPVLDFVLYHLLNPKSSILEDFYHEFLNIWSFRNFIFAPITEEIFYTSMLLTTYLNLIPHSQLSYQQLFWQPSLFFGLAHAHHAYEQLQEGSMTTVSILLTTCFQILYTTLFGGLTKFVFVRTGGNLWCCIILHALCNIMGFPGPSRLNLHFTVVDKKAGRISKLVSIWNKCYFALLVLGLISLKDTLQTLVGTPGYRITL
Chain of Phospholipase A2 (P04054 whole entry): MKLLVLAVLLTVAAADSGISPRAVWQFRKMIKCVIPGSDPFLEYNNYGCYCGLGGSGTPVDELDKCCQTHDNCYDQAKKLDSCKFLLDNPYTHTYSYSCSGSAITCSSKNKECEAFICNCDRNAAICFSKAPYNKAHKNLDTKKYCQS
Chain of Beta-adrenergic receptor kinase 1 (P25098 whole entry): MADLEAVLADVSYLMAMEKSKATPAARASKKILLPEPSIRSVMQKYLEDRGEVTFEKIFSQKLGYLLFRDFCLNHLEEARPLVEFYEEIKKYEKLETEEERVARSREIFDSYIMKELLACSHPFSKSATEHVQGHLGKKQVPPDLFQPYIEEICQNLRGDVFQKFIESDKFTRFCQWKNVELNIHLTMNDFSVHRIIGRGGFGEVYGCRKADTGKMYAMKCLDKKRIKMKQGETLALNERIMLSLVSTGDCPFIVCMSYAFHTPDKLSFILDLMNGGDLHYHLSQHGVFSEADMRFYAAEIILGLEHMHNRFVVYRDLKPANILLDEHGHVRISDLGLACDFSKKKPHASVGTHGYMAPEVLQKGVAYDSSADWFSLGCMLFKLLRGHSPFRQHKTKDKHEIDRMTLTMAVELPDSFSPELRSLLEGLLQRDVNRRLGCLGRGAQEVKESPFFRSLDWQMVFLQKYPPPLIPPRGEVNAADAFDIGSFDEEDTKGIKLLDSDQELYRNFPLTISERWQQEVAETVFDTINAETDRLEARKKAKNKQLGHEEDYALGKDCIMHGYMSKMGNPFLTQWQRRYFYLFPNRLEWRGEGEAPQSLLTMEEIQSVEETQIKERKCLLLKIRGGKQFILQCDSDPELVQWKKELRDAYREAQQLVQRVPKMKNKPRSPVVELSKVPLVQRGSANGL
Chain of Cytochrome P450 2C19 (P33261 whole entry): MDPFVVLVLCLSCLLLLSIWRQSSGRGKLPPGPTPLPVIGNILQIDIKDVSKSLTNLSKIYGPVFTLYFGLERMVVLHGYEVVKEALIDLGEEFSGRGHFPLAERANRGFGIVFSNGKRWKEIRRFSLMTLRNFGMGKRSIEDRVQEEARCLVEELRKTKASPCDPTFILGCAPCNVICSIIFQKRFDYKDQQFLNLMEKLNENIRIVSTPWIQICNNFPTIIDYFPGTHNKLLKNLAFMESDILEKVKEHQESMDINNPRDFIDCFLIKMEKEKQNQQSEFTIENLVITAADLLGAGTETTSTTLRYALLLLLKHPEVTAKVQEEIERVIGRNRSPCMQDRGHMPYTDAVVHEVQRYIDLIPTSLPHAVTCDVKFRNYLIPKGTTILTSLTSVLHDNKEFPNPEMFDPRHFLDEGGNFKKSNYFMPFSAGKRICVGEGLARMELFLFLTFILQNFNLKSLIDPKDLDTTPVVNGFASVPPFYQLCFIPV
Chain of Cytochrome P450 2D6 (P10635 whole entry): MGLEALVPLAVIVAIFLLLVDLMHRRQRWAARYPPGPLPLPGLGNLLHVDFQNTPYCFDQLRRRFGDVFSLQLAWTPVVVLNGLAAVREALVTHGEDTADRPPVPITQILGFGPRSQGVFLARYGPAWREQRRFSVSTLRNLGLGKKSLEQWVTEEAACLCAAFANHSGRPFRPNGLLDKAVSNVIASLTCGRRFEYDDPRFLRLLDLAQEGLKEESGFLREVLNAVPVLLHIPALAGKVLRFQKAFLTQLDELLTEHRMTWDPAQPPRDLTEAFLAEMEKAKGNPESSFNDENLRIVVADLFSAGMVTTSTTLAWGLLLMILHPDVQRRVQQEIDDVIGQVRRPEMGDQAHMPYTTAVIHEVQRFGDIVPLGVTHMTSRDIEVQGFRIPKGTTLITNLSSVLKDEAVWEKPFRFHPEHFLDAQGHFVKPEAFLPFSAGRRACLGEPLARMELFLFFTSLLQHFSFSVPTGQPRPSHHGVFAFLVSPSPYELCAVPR

AC50 [1]: 57 µM (active) | AC50 [2]: 23.1 µM (active)
SMILES: CC1Oc2ccccc2C=C1/C=N/NC(=O)[C@@H](C)NC(=O)OC(C)(C)C (some centres not stated)

EC50 [3]: 9.14 µM (active)
SMILES: COc1ccc(NC(=O)CCS(=O)(=O)c2ccc(Br)s2)cc1

SMILES: CCC1=Nc2cc(C(=O)NCc3ccco3)ccc2Sc2ccc(Cl)cc21
EC50 [4]: 1.55 µM (active) | EC50 [5]: 20.4 µM (active) | EC50 [6]: 1.97 µM (active) | IC50 [7]: 40.1 µM (inactive) | IC50 [8]: > 80 µM (inactive)

AC50 [9]: inconclusive | AC50 [10]: inconclusive | AC50 [11]: inconclusive | AC50 [12]: inconclusive
SMILES: Cn1cccc1C(=O)N1CCC2(CCCN(c3ncccn3)C2)CC1
